Test results taken from ChEMBL document CHEMBL1153678, “Bromobenzofurans : a new class of potent, non-peptide antagonists of angiotensin II” (Bioorg Med Chem Lett, 1991).

Target: T1, Type-1 angiotensin II receptor (Oryctolagus cuniculus) (UniProt P34976)
T1 sequence (whole entry): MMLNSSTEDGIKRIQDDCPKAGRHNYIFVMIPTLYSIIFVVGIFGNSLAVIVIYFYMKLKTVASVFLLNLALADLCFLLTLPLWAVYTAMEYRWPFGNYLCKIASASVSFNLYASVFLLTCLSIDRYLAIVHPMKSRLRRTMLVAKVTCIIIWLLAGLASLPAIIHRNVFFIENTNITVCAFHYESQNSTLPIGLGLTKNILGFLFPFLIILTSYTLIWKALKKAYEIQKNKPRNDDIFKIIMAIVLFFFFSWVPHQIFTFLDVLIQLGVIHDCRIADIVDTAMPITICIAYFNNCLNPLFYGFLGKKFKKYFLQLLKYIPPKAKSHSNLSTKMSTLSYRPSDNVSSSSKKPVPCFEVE
Experiment: Angiotensin II receptor, type 1 antagonist activity in rabbit isolated thoracic aorta
Assay type: functional, tissue-based

pKB | Compound
10.6 | CCCCc1nc(Cl)c(C(=O)O)n1Cc1ccc(-c2ccccc2-c2nn[nH]n2)cc1
8.4 | CCCCc1nc(Cl)c(CO)n1Cc1ccc(-c2ccccc2-c2nnn[nH]2)cc1
6.9 | CCCCc1nc(Cl)c(CO)n1Cc1ccc(-c2ccccc2C(=O)O)cc1
